Experimental data taken from ChEMBL document CHEMBL1156506, “Changes to the HIV long terminal repeat and to HIV integrase differentially impact HIV integrase assembly, activity, and the binding of strand transfer inhibitors” (J Biol Chem, 2007).

Assays:
[1] = system: Human immunodeficiency virus type 1 integrase (Human immunodeficiency virus 1), Q7ZJM1 [N155H]; test: Binding affinity to HIV recombinant integrase N155H mutant using U5 INTCA LTR relative to wild type LTR; conditions: tested as the 3H-labelled form
[2] = system: Human immunodeficiency virus; test: Binding affinity to HIV wild type integrase using U5 GTGC LTR relative to wild type LTR; conditions: tested as the 3H-labelled form
[3] = Inhibition of HIV wild type integrase strand transfer activity; parameters: species or system Human immunodeficiency virus
[4] = system: Human immunodeficiency virus; test: Inhibition of HIV wild type integrase assessed as strand transfer activity using U5 GTCA LTR by scintillation proximity assay relative to wild type LTR; parameters: scale not given: the % may be the effect or the level left; conditions: tested as the 3H-labelled form
[5] = system: Human immunodeficiency virus; test: Inhibition of HIV wild type integrase assessed as strand transfer activity using U5 GTCT LTR by scintillation proximity assay relative to wild type LTR; parameters: scale not given: the % may be the effect or the level left; conditions: tested as the 3H-labelled form
[6] = system: Human immunodeficiency virus; test: Inhibition of HIV wild type integrase assessed as strand transfer activity using U5 GTCC LTR by scintillation proximity assay relative to wild type LTR; parameters: scale not given: the % may be the effect or the level left; conditions: tested as the 3H-labelled form
[7] = system: Human immunodeficiency virus; test: Binding affinity to HIV wild type integrase using U5 GTCACA LTR relative to wild type LTR; conditions: tested as the 3H-labelled form
[8] = system: Human immunodeficiency virus; test: Inhibition of HIV wild type integrase assessed as strand transfer activity using U5 GTGT LTR by scintillation proximity assay relative to wild type LTR; parameters: scale not given: the % may be the effect or the level left; conditions: tested as the 3H-labelled form
[9] = system: Human immunodeficiency virus type 1 integrase (Human immunodeficiency virus 1), Q7ZJM1 [N155H]; test: Binding affinity to HIV recombinant integrase N155H mutant using U5 GTCA LTR relative to wild type LTR; conditions: tested as the 3H-labelled form
[10] = system: Human immunodeficiency virus type 1 integrase (Human immunodeficiency virus 1), Q7ZJM1 [N155H]; test: Binding affinity to HIV recombinant integrase N155H mutant using U5 GTC LTR relative to wild type LTR; conditions: tested as the 3H-labelled form
[11] = system: Human immunodeficiency virus type 1 integrase (Human immunodeficiency virus 1), Q7ZJM1 [N155H]; test: Inhibition of HIV recombinant integrase N155H mutant assessed as specific strand transfer activity using U5 GdCA LTR by scintillation proximity assay relative to wild type LTR; parameters: scale not given: the % may be the effect or the level left; conditions: tested as the 3H-labelled form
[12] = system: Human immunodeficiency virus type 1 integrase (Human immunodeficiency virus 1), Q7ZJM1 [N155H]; test: Inhibition of HIV recombinant integrase N155H mutant assessed as specific strand transfer activity using U5 GddA LTR by scintillation proximity assay relative to wild type LTR; parameters: scale not given: the % may be the effect or the level left; conditions: tested as the 3H-labelled form
[13] = system: Human immunodeficiency virus type 1 integrase (Human immunodeficiency virus 1), Q7ZJM1 [Q148R]; test: Inhibition of HIV recombinant integrase Q148R mutant assessed as strand transfer activity using U5 GTCA LTR by scintillation proximity assay relative to wild type LTR; parameters: scale not given: the % may be the effect or the level left; conditions: tested as the 3H-labelled form
[14] = system: Human immunodeficiency virus type 1 integrase (Human immunodeficiency virus 1), Q7ZJM1 [Q148R]; test: Inhibition of HIV recombinant integrase Q148R mutant assessed as strand transfer activity using U5 GTdA LTR by scintillation proximity assay relative to wild type LTR; parameters: scale not given: the % may be the effect or the level left; conditions: tested as the 3H-labelled form
[15] = system: Human immunodeficiency virus type 1 integrase (Human immunodeficiency virus 1), Q7ZJM1 [Q148R]; test: Inhibition of HIV recombinant integrase Q148R mutant assessed as strand transfer activity using U5 GdCA LTR by scintillation proximity assay relative to wild type LTR; parameters: scale not given: the % may be the effect or the level left; conditions: tested as the 3H-labelled form
[16] = system: Human immunodeficiency virus type 1 integrase (Human immunodeficiency virus 1), Q7ZJM1 [Q148R]; test: Inhibition of HIV recombinant integrase Q148R mutant assessed as strand transfer activity using U5 TTCA LTR by scintillation proximity assay relative to wild type LTR; parameters: scale not given: the % may be the effect or the level left; conditions: tested as the 3H-labelled form
[17] = system: Human immunodeficiency virus type 1 integrase (Human immunodeficiency virus 1), Q7ZJM1 [Q148R]; test: Binding affinity to HIV recombinant integrase Q148R mutant using U5 GTdA LTR relative to wild type LTR; conditions: tested as the 3H-labelled form
[18] = system: Human immunodeficiency virus type 1 integrase (Human immunodeficiency virus 1), Q7ZJM1 [Q148R]; test: Binding affinity to HIV recombinant integrase Q148R mutant using U5 GdCA LTR relative to wild type LTR; conditions: tested as the 3H-labelled form
[19] = system: Human immunodeficiency virus type 1 integrase (Human immunodeficiency virus 1), Q7ZJM1 [Q148R]; test: Binding affinity to HIV recombinant integrase Q148R mutant using U5 ApTCA LTR relative to wild type LTR; conditions: tested as the 3H-labelled form
[20] = system: Human immunodeficiency virus type 1 integrase (Human immunodeficiency virus 1), Q7ZJM1 [Q148R]; test: Inhibition of U5 GTC LTR HIV recombinant integrase Q148R mutant assessed as specific strand transfer activity using by scintillation proximity assay relative to wild type LTR; parameters: scale not given: the % may be the effect or the level left; conditions: tested as the 3H-labelled form
[21] = system: Human immunodeficiency virus type 1 integrase (Human immunodeficiency virus 1), Q7ZJM1 [Q148R]; test: Inhibition of U5 GTdA LTR HIV recombinant integrase Q148R mutant assessed as specific strand transfer activity using by scintillation proximity assay relative to wild type LTR; parameters: scale not given: the % may be the effect or the level left; conditions: tested as the 3H-labelled form
[22] = system: Human immunodeficiency virus type 1 integrase (Human immunodeficiency virus 1), Q7ZJM1 [Q148R]; test: Inhibition of U5 TTCA LTR HIV recombinant integrase Q148R mutant assessed as specific strand transfer activity using by scintillation proximity assay relative to wild type LTR; parameters: scale not given: the % may be the effect or the level left; conditions: tested as the 3H-labelled form
[23] = system: Human immunodeficiency virus; test: Inhibition of HIV wild type integrase assessed as strand transfer activity using U5 GdCA LTR by scintillation proximity assay relative to wild type LTR; parameters: scale not given: the % may be the effect or the level left; conditions: tested as the 3H-labelled form
[24] = system: Human immunodeficiency virus; test: Inhibition of HIV wild type integrase assessed as strand transfer activity using U5 GTAA LTR by scintillation proximity assay relative to wild type LTR; parameters: scale not given: the % may be the effect or the level left; conditions: tested as the 3H-labelled form
[25] = system: Human immunodeficiency virus; test: Binding affinity to HIV wild type integrase using U5 GdCA LTR relative to wild type LTR; conditions: tested as the 3H-labelled form
[26] = system: Human immunodeficiency virus; test: Binding affinity to HIV wild type integrase using U5 GdC LTR relative to wild type LTR; conditions: tested as the 3H-labelled form
[27] = system: Human immunodeficiency virus; test: Binding affinity to HIV wild type integrase using U5 GTAA LTR relative to wild type LTR; conditions: tested as the 3H-labelled form
[28] = system: Human immunodeficiency virus; test: Binding affinity to HIV wild type integrase using U5 GTAG LTR relative to wild type LTR; conditions: tested as the 3H-labelled form
[29] = system: Human immunodeficiency virus; test: Inhibition of HIV wild type integrase assessed as strand transfer activity using U5 GTAT LTR by scintillation proximity assay relative to wild type LTR; parameters: scale not given: the % may be the effect or the level left; conditions: tested as the 3H-labelled form
[30] = system: Human immunodeficiency virus; test: Inhibition of HIV wild type integrase assessed as strand transfer activity using U5 GTAC LTR by scintillation proximity assay relative to wild type LTR; parameters: scale not given: the % may be the effect or the level left; conditions: tested as the 3H-labelled form
[31] = system: Human immunodeficiency virus; test: Binding affinity to HIV wild type integrase using U5 GTAC LTR relative to wild type LTR; conditions: tested as the 3H-labelled form
[32] = system: Human immunodeficiency virus; test: Inhibition of HIV wild type integrase assessed as strand transfer activity using U5 GCCA LTR by scintillation proximity assay relative to wild type LTR; parameters: scale not given: the % may be the effect or the level left; conditions: tested as the 3H-labelled form
[33] = system: Human immunodeficiency virus; test: Binding affinity to HIV wild type integrase using U5 GCCA LTR relative to wild type LTR; conditions: tested as the 3H-labelled form
[34] = system: Human immunodeficiency virus; test: Binding affinity to HIV wild type integrase using U5 GGCA LTR relative to wild type LTR; conditions: tested as the 3H-labelled form
[35] = system: Human immunodeficiency virus; test: Binding affinity to HIV wild type integrase U5 GACA/CT LTR relative to wild type LTR; conditions: tested as the 3H-labelled form
[36] = system: Human immunodeficiency virus; test: Inhibition of HIV wild type integrase assessed as strand transfer activity using U5 ATCA LTR by scintillation proximity assay relative to wild type LTR; parameters: scale not given: the % may be the effect or the level left; conditions: tested as the 3H-labelled form
[37] = system: Human immunodeficiency virus; test: Inhibition of HIV wild type integrase assessed as strand transfer activity using U5 TTCA LTR by scintillation proximity assay relative to wild type LTR; parameters: scale not given: the % may be the effect or the level left; conditions: tested as the 3H-labelled form
[38] = system: Human immunodeficiency virus; test: Inhibition of HIV wild type integrase assessed as strand transfer activity U5 CTCA LTR by scintillation proximity assay relative to wild type LTR; parameters: scale not given: the % may be the effect or the level left; conditions: tested as the 3H-labelled form
[39] = system: Human immunodeficiency virus; test: Binding affinity to HIV wild type integrase U5 CTCA LTR relative to wild type LTR; conditions: tested as the 3H-labelled form
[40] = system: Human immunodeficiency virus; test: Binding affinity to HIV wild type integrase using U5 GTCA/CC LTR relative to wild type LTR; conditions: tested as the 3H-labelled form
[41] = system: Human immunodeficiency virus; test: Inhibition of HIV wild type integrase assessed as strand transfer activity using U5 GTCA/CG LTR by scintillation proximity assay relative to wild type LTR; parameters: scale not given: the % may be the effect or the level left; conditions: tested as the 3H-labelled form
[42] = system: Human immunodeficiency virus; test: Inhibition of HIV wild type integrase assessed as specific strand transfer activity using U5 GdCA LTR by scintillation proximity assay relative to wild type LTR; parameters: scale not given: the % may be the effect or the level left; conditions: tested as the 3H-labelled form
[43] = system: Human immunodeficiency virus; test: Inhibition of HIV wild type integrase assessed as specific strand transfer activity using U5 TTCA LTR by scintillation proximity assay relative to wild type LTR; parameters: scale not given: the % may be the effect or the level left; conditions: tested as the 3H-labelled form
[44] = system: Human immunodeficiency virus; test: Inhibition of HIV wild type integrase assessed as specific strand transfer activity using U5 INTCA LTR by scintillation proximity assay relative to wild type LTR; parameters: scale not given: the % may be the effect or the level left; conditions: tested as the 3H-labelled form
[45] = system: Human immunodeficiency virus; test: Inhibition of HIV wild type integrase assessed as specific strand transfer activity using U5 GTTA LTR by scintillation proximity assay relative to wild type LTR; parameters: scale not given: the % may be the effect or the level left; conditions: tested as the 3H-labelled form

`Cn1c(N2CCCCS2(=O)=O)nc(C(=O)NCc2ccc(F)cc2)c(O)c1=O` [BMS-707035] showed an Activity [1] of 21%, an Activity [2] of 25% and an IC50 [3] of 15 nM. It also gave an Activity [4] of 75%, an Activity [5] of 75% and an Activity [6] of 75%. The Activity [7] was 75%, the Activity [8] was 25% and the Activity [9] was 10%. It also gave an Activity [10] of 4%, an Activity [11] of 62% and an Activity [12] of 3%. It also gave an Activity [13] of 26%, an Activity [14] of 2.5% and an Activity [15] of 0.6%. For the same molecule, the Activity [16] was 4%, the Activity [17] was 2% and the Activity [18] was 3%. It also gave an Activity [19] of 0.5%, an Activity [20] of 83% and an Activity [21] of over 50%. For the same molecule, the Activity [22] was over 80%, the Activity [23] was 70% and the Activity [24] was 28%. The Activity [25] was 40%, the Activity [26] was 36% and the Activity [27] was 25%. The Activity [28] was under 25%, the Activity [29] was under 25% and the Activity [30] was under 25%. For the same molecule, the Activity [31] was under 25%, the Activity [32] was 75% and the Activity [33] was 75%. For the same molecule, the Activity [34] was under 25%, the Activity [35] was under 25% and the Activity [36] was 75%. The Activity [37] was 25%, the Activity [38] was 40% and the Activity [39] was under 25%. It also gave an Activity [40] of 75%, an Activity [41] of under 25% and an Activity [42] of 103%. For the same molecule, the Activity [43] was 154%, the Activity [44] was 167% and the Activity [45] was 143%.
